Values joined by “and” are separate entries in the source; they are usually repeats but may differ in a detail not shown here. Equal values may be shown once. Read-outs that look alike come from different tables or passages of the source.
Key:
C. albicans ATCC 10231 = assay: Antimicrobial activity, broth microdilution MIC/MBC; format: cell-based, Candida albicans; conditions: C. albicans ATCC 10231, 24 h at 37 °C, at least 90% growth inhibition; nd—not detected
[1] = system: Lepidium sativum L. roots; conditions: 24 h incubation, mean(±SD), n = 3
E. coli ATCC 8739 = assay: Antimicrobial activity, broth microdilution MIC/MBC; format: cell-based, Escherichia coli; conditions: nd—not detected; for MIC (%): E. coli ATCC 8739, 24 h at 37 °C, at least 90% growth inhibition; for MBC (%): E. coli ATCC 8739
[2] = system: Lepidium sativum L. seeds; conditions: 24 h incubation, mean(±SD), n = 3
S. aureus ATCC 6538 = assay: Antimicrobial activity, broth microdilution MIC/MBC; format: cell-based, Staphylococcus aureus; conditions: nd—not detected; for MIC (%): S. aureus ATCC 6538, 24 h at 37 °C, at least 90% growth inhibition
L929 fibroblasts = assay: Mammalian cell cytotoxicity screening, resazurin viability; format: cell-based, mouse
[3] = 0.01% (w/w) compound in the medium
[4] = 0.03% (w/w) compound in the medium
[5] = 0.05% (w/w) compound in the medium
[6] = 0.10% (w/w) compound in the medium
[7] = 0.30% (w/w) compound in the medium
[8] = 0.50% (w/w) compound in the medium
[9] = 1.00% (w/w) compound in the medium
[10] = 2.00% (w/w) compound in the medium
[11] = 3.00% (w/w) compound in the medium
[12] = 4.00% (w/w) compound in the medium
[13] = 5.00% (w/w) compound in the medium

SMILES | MIC (%) (C. albicans ATCC 10231) | Inhibition of the root growth in pregerminated Lepidium sativum seeds (IRG, %) [1, 3] | Inhibition of the root growth in pregerminated Lepidium sativum seeds (IRG, %) [1, 4] | Inhibition of the root growth in pregerminated Lepidium sativum seeds (IRG, %) [1, 5] | Inhibition of the root growth in pregerminated Lepidium sativum seeds (IRG, %) [1, 7] | Inhibition of the root growth in pregerminated Lepidium sativum seeds (IRG, %) [1, 8] | Inhibition of the root growth in pregerminated Lepidium sativum seeds (IRG, %) [1, 9] | Inhibition of the root growth in pregerminated Lepidium sativum seeds (IRG, %) [1, 10] | Inhibition of the root growth in pregerminated Lepidium sativum seeds (IRG, %) [1, 11] | Inhibition of the root growth in pregerminated Lepidium sativum seeds (IRG, %) [1, 12] | Inhibition of the root growth in pregerminated Lepidium sativum seeds (IRG, %) [1, 13] | Inhibition of the Lepidium sativum seeds germination (ISG, %) [2, 3] | Inhibition of the Lepidium sativum seeds germination (ISG, %) [2, 4] | Inhibition of the Lepidium sativum seeds germination (ISG, %) [2, 5] | Inhibition of the Lepidium sativum seeds germination (ISG, %) [2, 6] | Inhibition of the Lepidium sativum seeds germination (ISG, %) [2, 7] | Inhibition of the Lepidium sativum seeds germination (ISG, %) [2, 8] | Inhibition of the Lepidium sativum seeds germination (ISG, %) [2, 9] | Inhibition of the Lepidium sativum seeds germination (ISG, %) [2, 10] | Inhibition of the Lepidium sativum seeds germination (ISG, %) [2, 12] | also measured
N=C(N)NCCC[C@H](N)C(=O)O.OCCN(CCO)CCO [[TEA][Arg]] | 0.94 | 9.0(±1.9) % | 20.6(±1.8) % | 31.2(±1.9) % | 53.8(±1.3) % | 56.5(±1.4) % | 65.4(±1.0) % | 74.4(±0.7) % | 84.7(±0.6) % | 93.7(±0.5) % | 98.3(±0.3) % | 0.0(±0.0) % | 0.0(±0.0) % | 0.0(±0.0) % | 0.0(±0.0) % | 1.2(±0.8) % | 5.5(±0.5) % | 15.5(±0.5) % | 25.5(±2.1) % | 58.2(±1.2) % | Inhibition of the root growth in pregerminated Lepidium sativum seeds (IRG, %) [1, 6]: 41.9(±1.3) %; MIC (%) (E. coli ATCC 8739): 3.75%; MBC (%) (E. coli ATCC 8739): 3.75%; Inhibition of the Lepidium sativum seeds germination (ISG, %) [2, 11]: 32.7%; MIC (%) (S. aureus ATCC 6538): 3.75%; MBC (%) (S. aureus ATCC 6538; S. aureus ATCC 6538): 3.75%
NC(CCC(=O)O)C(=O)O.OCCN(CCO)CCO (stereo not shown) [[TEA][Glu]] | 15 | 0.0(±0.0) % and 0% | 0.0(±0.0) % and 0% | 4.0(±2.4) % | 5.8% | 21% | 36.3(±2.2) % | 44.5(±1.8) % | 61.4(±1.0) % | 79.4(±0.8) % | 82.4(±0.5) % | 0.0(±0.0) % | 0.0(±0.0) % | 1.8(±0.5) % | 3.6(±0.8) % | 5.4(±1.3) % | 8.9(±0.8) % | 10.7(±1.3) % | 10.7(±1.3) % | 21.4(±0.5) % | Inhibition of the root growth in pregerminated Lepidium sativum seeds (IRG, %) [1, 6]: 4.9(±2.7) %; MIC (%) (E. coli ATCC 8739): 7.50%; MBC (%) (E. coli ATCC 8739): 15%; Inhibition of the Lepidium sativum seeds germination (ISG, %) [2, 11]: 14.3%; Inhibition of the Lepidium sativum seeds germination (ISG, %) [2, 13]: 33.9%; MIC (%) (S. aureus ATCC 6538): 15%
CSCC[C@H](N)C(=O)O.OCCN(CCO)CCO [[TEA][Met]] | 5.00 | 0.0(±0.0) % | 0.0(±0.0) % | 0.0(±0.0) % | 22.8(±3.3) % | 30.1(±3.8) % | 52.1(±2.2) % | 60.7(±2.0) % | 64.9(±1.4) % | 77.4(±1.3) % | 77.8(±0.9) % | 0.0(±0.2) % | 0.0(±0.1) % | 0.0(±0.1) % | 0.0(±0.1) % | 0.0(±0.0) % | 1.9(±1.3) % | 3.7(±0.5) % | 7.4(±0.9) % | 29.6(±0.8) % | ED20 (L929 fibroblasts; 24h exposure): 0.08±0.01%; ED50 (L929 fibroblasts; 24h exposure): 0.29±0.02% and 0.29%; ED80 (L929 fibroblasts; 24h exposure): 0.74±0.08%; ED20 (L929 fibroblasts; 48h exposure): 0.09±0.01%; ED50 (L929 fibroblasts; 48h exposure): 0.31±0.02%; ED80 (L929 fibroblasts; 48h exposure): 0.78±0.06%; Inhibition of the Lepidium sativum seeds germination (ISG, %) [2, 13]: 37.0(±2.5) %
N[C@@H](Cc1c[nH]cn1)C(=O)O.OCCN(CCO)CCO [[TEA][His]] | 2.50 | 1.1(±2.2) % | 12.9(±2.1) % | 15.7(±2.2) % | 28.6% | 37.1(±2.0) % | 48.6(±1.6) % | 62.9(±1.2) % | 72.9(±0.9) % | 80.0(±0.8) % | 84.3(±0.7) % | 0.0(±0.0) % | 1.9(±0.5) % | 3.7(±0.9) % | 5.6(±0.5) % | 7.4(±0.5) % | 9.3(±0.5) % | 12.0(±1.4) % | 14.8(±0.9) % | 27.8(±2.8) % | Inhibition of the root growth in pregerminated Lepidium sativum seeds (IRG, %) [1, 6]: 22.1(±2.1) %; Inhibition of the Lepidium sativum seeds germination (ISG, %) [2, 11]: 25.9(±1.2) %; Inhibition of the Lepidium sativum seeds germination (ISG, %) [2, 13]: 74.1(±0.5) %
CC(O)C(N)C(=O)O.OCCN(CCO)CCO [[TEA][Thr]] | 3.75 | 0.0(±0.0) % | 17.7(±2.3) % | 19.7(±2.4) % | 37.8% | 66.6(±1.3) % | 73.7(±1.0) % | 80.3(±0.9) % | 88.0(±0.8) % | 92.7(±0.6) % | 96.2(±0.5) % | 0.0(±0.0) % | 3.8(±0.1) % | 6.7(±0.8) % | 11.3(±1.7) % | 15.1(±0.8) % | 16.8(±0.9) % | 18.9(±1.7) % | 21.7(±0.8) % | 45.3(±2.1) % | Inhibition of the root growth in pregerminated Lepidium sativum seeds (IRG, %) [1, 6]: 21.8(±1.9) %; MIC (%) (E. coli ATCC 8739): 7.50%; ED20 (L929 fibroblasts; 24h exposure): 0.40±0.09%; ED50 (L929 fibroblasts; 24h exposure): 0.57±0.03%; ED80 (L929 fibroblasts; 24h exposure): 0.73±0.14%; ED20 (L929 fibroblasts; 48h exposure): 0.26±0.03%; ED50 (L929 fibroblasts; 48h exposure): 0.38±0.02%; ED80 (L929 fibroblasts; 48h exposure): 0.50±0.03%

From article PMC12029836, “Phytotoxicity, Cytotoxicity, and Antimicrobial Activity of Triethanolammonium Amino Acids Salts” (Molecules, 2025)
